Assay results as given in patent publication US8247170B2, “Detection of penicillin tolerance in Group B Streptococcus: single nucleotide polymorphisms in penicillin binding protein 4” (priority 2008, dated 2012).

System: GBS clinical isolates and laboratory strains
Test: Macrobroth penicillin tolerance assay
Format: cell-based, Group B Streptococcus
Settings: for 10xMIC, regrowth O.D.600: Penicillin G 10×MIC90 48 h; for 10xMIC, regrowth O.D.600 / 30xMIC, regrowth O.D.600 / 100xMIC, regrowth O.D.600 / 300xMIC, regrowth O.D.600: then 24 h drug-free; for 30xMIC, regrowth O.D.600: Penicillin G 30×MIC90 48 h; for 100xMIC, regrowth O.D.600: Penicillin G 100×MIC90 48 h; for 300xMIC, regrowth O.D.600: Penicillin G 300×MIC90 48 h
Method: Using this modified penicillin tolerance assay, tolerant strains from the GBS clinical isolates can be more efficiently identified. In this macrobroth culture format, 25 ml THB broth GBS cultures (containing clinical isolates) were grown to an early exponential growth phase (˜0.2 OD600). Cell cultures (6 ml) were collected and divided into 4 culture tubes. […] Cell cultures were shaken at 150 rpm in order to maintain cells in suspension for proper growth. Subcultures (1/20 dilution) of cells were put into fresh THB containing […] Penase (i.e., 100 μl of Penase 10,000 U stock into 4 ml THB culture). Subcultures were allowed to grow for 24 hours at 37° C. Cell growth was monitored by OD (see Example 2).
(I) Bacterial Strains and Culture Conditions. GBS strains A909 (serotype IA), 515 (serotype IA), NEM316 (serotype III), COHI (serotype III), 2603V/R (serotype V) and O90R (non-typable) were used in this study. E. coli Top10 cells were used for the recombination experiments. GBS was cultured in Todd Hewitt broth (THB) or Tryptic Soy 5% sheep blood (TS) media and E. coli in Luria-broth (LB) medium or agar. Antibiotics were used at the following concentrations: for GBS—penicillin G (MIC90 0.06 μg ml^−1), ampicillin (MIC90 0.12 μg ml^−1), vancomycin (MIC90 2 μg ml^−1), cefazolin (MIC90 1 μg ml^−1) and chloramphenicol (5 μg ml^−1); for E. coli—ampicillin (50 μg ml^−1) and chloramphenicol (5 μg ml^−1). Both GBS and E. coli cultures were grown at 37° C. (II) Tolerance Using the MBC:MIC Ratio Method. Three GBS laboratory strains (i.e., A909, NEM316, and O90R) were cultured overnight for 18 h at 37° C. in THB. Subcultures in THB were subsequently grown to exponential phase (OD600˜0.3; i.e. 5×10^5 cfu/ml) at 37° C. Cell cultures were then exposed to different concentrations of antibiotics (Penicillin G, Ampicillin, Cefozolin or Vancomycin). […] Cell cultures were dispersed every 18 h before OD600 was measured to determine the lowest concentration of antibiotic with 90% growth inhibition (MIC90). Antibiotic treated cells (8 μl) from each well were re-suspended into PBS (100 μl) and plated (54 μl) on TS agar plates and allowed to grow for an additional 24 h at 37° C. Cell count was performed to determine the lowest concentration of antibiotic with 90% killing of original inoculums (MBC90). (III) Penicillin Killing and Regrowth Tolerance Assay by Microbroth Dilution. Three GBS laboratory strains (i.e., A909, NEM316, and O90R) were cultured overnight for 18 h at 37° C. in THB. Subcultures in THB were subsequently grown to exponential phase (OD600˜0.3) at 37° C. Cell cultures were then exposed to different concentrations of Penicillin G (Sigma, St. Louis, Mo.). […] Cell cultures were dispersed. A 1:20 dilution of cells was re-plated into new wells containing fresh THB with 500 U Penase (to degrade residual penicillin). Cell cultures were allowed to re-grow for an additional 24 h at 37° C. before the OD600 was measured. (IV) Measuring Cell Viability by Determining ATP Concentration. GBS strains were cultured for 18 h at 37° C. in THB. These cells were inoculated into fresh THB and subsequently allowed to grow to exponential phase (OD600 0.25-0.3) at 37° C. One ml of each culture was centrifuged at 5,000×g for 4 min. The cell pellet was re-suspended in ATP-free water. Cellular ATP was extracted using trichloroacetic acid (TCA) (5%) for 2 min and subsequently neutralized with Tris-EDTA-0.1M NaOAc, pH 7.75 to 10×TCA volume. The initial (in.) cellular ATP concentration ([ATP]) was measured using the ENLITEN (Promega) luciferase based reaction kit. THB cultures were then treated with 100×MIC90 Penicillin G for 22 h. The experimental (exp.) cellular ATP was extracted and the concentration was measured as stated above. Based on the calculations ([ATP] exp.)/([ATP] in./O.D. in.), differences in viability were equated with the change in [ATP]. (V) Measuring Penicillin Induced Lysis. Three GBS laboratory strains (A909, NEM316, and O90R) were cultured for 18 h at 37° C. in THB. […]

[1] = GBS laboratory strain 2603V/R (V)
[2] = GBS laboratory strain A909 (Ia)
[3] = GBS laboratory strain COH1 (III)
[4] = GBS laboratory strain NEM316 (III)
[5] = GBS laboratory strain O90R (NT)

CC1(C)S[C@@H]2[C@H](NC(=O)Cc3ccccc3)C(=O)N2[C@H]1C(=O)O [Penicillin G]
% of clinical isolates PE-PT (51 clinical isolates): 23.5%
% of clinical isolates PT (penicillin tolerant) (51 clinical isolates): 15.7%
% of clinical isolates S (penicillin susceptible) (51 clinical isolates): 60.8%
Phenotype (GBS laboratory strain 515 (Ia)): Penicillin Tolerance (PT)
10xMIC, regrowth O.D.600 (GBS laboratory strain 515 (Ia)): ++ (“++” indicates an O.D.600 of 0.251 to 0.750)
30xMIC, regrowth O.D.600 (GBS laboratory strain 515 (Ia)): +++ (“+++” indicates an O.D.600 of 0.751 to 1.500)
100xMIC, regrowth O.D.600 (GBS laboratory strain 515 (Ia)): ++ (“++” indicates an O.D.600 of 0.251 to 0.750)
300xMIC, regrowth O.D.600 (GBS laboratory strain 515 (Ia)): ++ (“++” indicates an O.D.600 of 0.251 to 0.750)
Phenotype [1]: Susceptible (S)
10xMIC, regrowth O.D.600 [1]: −− (“−−” indicates an O.D.600 of 0.001 to 0.099)
30xMIC, regrowth O.D.600 [1]: −− (“−−” indicates an O.D.600 of 0.001 to 0.099)
100xMIC, regrowth O.D.600 [1]: −− (“−−” indicates an O.D.600 of 0.001 to 0.099)
300xMIC, regrowth O.D.600 [1]: −− (“−−” indicates an O.D.600 of 0.001 to 0.099)
Phenotype [2]: Susceptible (S)
10xMIC, regrowth O.D.600 [2]: −− (“−−” indicates an O.D.600 of 0.001 to 0.099)
30xMIC, regrowth O.D.600 [2]: −− (“−−” indicates an O.D.600 of 0.001 to 0.099)
100xMIC, regrowth O.D.600 [2]: −− (“−−” indicates an O.D.600 of 0.001 to 0.099)
300xMIC, regrowth O.D.600 [2]: −− (“−−” indicates an O.D.600 of 0.001 to 0.099)
Phenotype [3]: Paradoxical Effect-Penicillin Tolerance
10xMIC, regrowth O.D.600 [3]: −− (“−−” indicates an O.D.600 of 0.001 to 0.099)
30xMIC, regrowth O.D.600 [3]: +++ (“+++” indicates an O.D.600 of 0.751 to 1.500)
100xMIC, regrowth O.D.600 [3]: +++ (“+++” indicates an O.D.600 of 0.751 to 1.500)
300xMIC, regrowth O.D.600 [3]: ++ (“++” indicates an O.D.600 of 0.251 to 0.750)
Phenotype [4]: Paradoxical Effect-Penicillin Tolerance
10xMIC, regrowth O.D.600 [4]: +++ (“+++” indicates an O.D.600 of 0.751 to 1.500)
30xMIC, regrowth O.D.600 [4]: −− (“−−” indicates an O.D.600 of 0.001 to 0.099)
100xMIC, regrowth O.D.600 [4]: ++ (“++” indicates an O.D.600 of 0.251 to 0.750)
300xMIC, regrowth O.D.600 [4]: +++ (“+++” indicates an O.D.600 of 0.751 to 1.500)
Phenotype [5]: Penicillin Tolerance (PT)
10xMIC, regrowth O.D.600 [5]: +++ (“+++” indicates an O.D.600 of 0.751 to 1.500)
30xMIC, regrowth O.D.600 [5]: +++ (“+++” indicates an O.D.600 of 0.751 to 1.500)
100xMIC, regrowth O.D.600 [5]: +++ (“+++” indicates an O.D.600 of 0.751 to 1.500)
300xMIC, regrowth O.D.600 [5]: +++ (“+++” indicates an O.D.600 of 0.751 to 1.500)
10xMIC, regrowth O.D.600 (GBS strain 12 (III)): −− (“−−” indicates an O.D.600 of 0.001 to 0.099)
30xMIC, regrowth O.D.600 (GBS strain 12 (III)): −− (“−−” indicates an O.D.600 of 0.001 to 0.099)
100xMIC, regrowth O.D.600 (GBS strain 12 (III)): −− (“−−” indicates an O.D.600 of 0.001 to 0.099)
300xMIC, regrowth O.D.600 (GBS strain 12 (III)): −− (“−−” indicates an O.D.600 of 0.001 to 0.099)
10xMIC, regrowth O.D.600 (GBS strain 18 (NT)): −− (“−−” indicates an O.D.600 of 0.001 to 0.099)
30xMIC, regrowth O.D.600 (GBS strain 18 (NT)): −− (“−−” indicates an O.D.600 of 0.001 to 0.099)
100xMIC, regrowth O.D.600 (GBS strain 18 (NT)): −− (“−−” indicates an O.D.600 of 0.001 to 0.099)
300xMIC, regrowth O.D.600 (GBS strain 18 (NT)): −− (“−−” indicates an O.D.600 of 0.001 to 0.099)
10xMIC, regrowth O.D.600 (GBS strain 21 (NT)): −− (“−−” indicates an O.D.600 of 0.001 to 0.099)
30xMIC, regrowth O.D.600 (GBS strain 21 (NT)): −− (“−−” indicates an O.D.600 of 0.001 to 0.099)
100xMIC, regrowth O.D.600 (GBS strain 21 (NT)): −− (“−−” indicates an O.D.600 of 0.001 to 0.099)
300xMIC, regrowth O.D.600 (GBS strain 21 (NT)): −− (“−−” indicates an O.D.600 of 0.001 to 0.099)
10xMIC, regrowth O.D.600 (GBS strain 22 (V)): ++ (“++” indicates an O.D.600 of 0.251 to 0.750)
30xMIC, regrowth O.D.600 (GBS strain 22 (V)): ++ (“++” indicates an O.D.600 of 0.251 to 0.750)
100xMIC, regrowth O.D.600 (GBS strain 22 (V)): ++ (“++” indicates an O.D.600 of 0.251 to 0.750)
300xMIC, regrowth O.D.600 (GBS strain 22 (V)): ++ (“++” indicates an O.D.600 of 0.251 to 0.750)
10xMIC, regrowth O.D.600 (GBS strain 26 (NT)): −− (“−−” indicates an O.D.600 of 0.001 to 0.099)
30xMIC, regrowth O.D.600 (GBS strain 26 (NT)): −− (“−−” indicates an O.D.600 of 0.001 to 0.099)
100xMIC, regrowth O.D.600 (GBS strain 26 (NT)): −− (“−−” indicates an O.D.600 of 0.001 to 0.099)
300xMIC, regrowth O.D.600 (GBS strain 26 (NT)): −− (“−−” indicates an O.D.600 of 0.001 to 0.099)
10xMIC, regrowth O.D.600 (GBS strain 46 (Ib)): −− (“−−” indicates an O.D.600 of 0.001 to 0.099)
30xMIC, regrowth O.D.600 (GBS strain 46 (Ib)): −− (“−−” indicates an O.D.600 of 0.001 to 0.099)
100xMIC, regrowth O.D.600 (GBS strain 46 (Ib)): −− (“−−” indicates an O.D.600 of 0.001 to 0.099)
300xMIC, regrowth O.D.600 (GBS strain 46 (Ib)): −− (“−−” indicates an O.D.600 of 0.001 to 0.099)
10xMIC, regrowth O.D.600 (GBS strain 47 (III)): −− (“−−” indicates an O.D.600 of 0.001 to 0.099)
30xMIC, regrowth O.D.600 (GBS strain 47 (III)): −− (“−−” indicates an O.D.600 of 0.001 to 0.099)
